Where a SMILES comes first, the peptide text is derived from it. [ ]: non-standard residue; d: D form. The star is where a group is joined. Cyclohexanecarbonyl = O=C(C1CCCCC1)*; Decanoyl = CCCCCCCCCC(=O)*; Orn = NCCC[C@H](N)C(=O)O; X1 = CCCN1C(=O)CC(*)C1=O
How the values were obtained:
[1] = Human plasma half-life assay (LC-MS); assay type: in vitro ADME; conditions: incubated at 37° C., read-out: Human Plasma T½ (converted)
Summary of the method: (§1)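 Aliquots taken from human or rat plasma at time points up to 72 h, quenched with formic acid and acetonitrile, centrifuged. Supernatant analyzed by LC-MS (ESI, positive ion, full scan) on a C8 column with a water/acetonitrile 1% formic acid gradient.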

[2] = Rat plasma half-life assay (LC-MS); assay type: in vitro ADME; conditions: incubated at 37° C., read-out: Rat Plasma T½ (converted)
Summary of the method: as §1

| Structure (SMILES) | half-life at 0.1 mg/mL [1] [h] | half-life at 0.1 mg/mL [2] [h] | half-life at 0.1 mg/ml [1] [h] | half-life at 0.1 mg/ml [2] [h] |
| --- | --- | --- | --- | --- |
| CC[C@H](C)[C@H](NC(=O)[C@H](CO)NC(=O)[C@H](Cc1ccc(O)cc1)NC(=O)[C@H](CC(=O)O)NC(=O)[C@H](CO)NC(=O)C1(NC(=O)[C@H](Cc2ccccc2)NC(C)=O)CCCCC1)C(=O)N[C@@H](C)C(=O)N[C@@H](CCSC)C(=O)N[C@@H](CC(=O)O)C(=O)N[C@@H](CCCCN)C(=O)N[C@H](C(=O)N[C@@H](Cc1c[nH]cn1)C(=O)N[C@@H](CCC(N)=O)C(=O)N[C@@H](CCC(N)=O)C(=O)N[C@@H](CC(=O)O)C(=O)N[C@@H](Cc1ccccc1)C(=O)N[C@H](C(=O)N[C@@H](CC(N)=O)C(=O)N[C@@H](Cc1c[nH]c2ccccc12)C(=O)N[C@@H](CC(C)C)C(=O)N[C@@H](CC(C)C)C(=O)N[C@@H](C)C(=O)N[C@@H](CCC(N)=O)C(=O)N[C@@H](CCCCN)C(N)=O)C(C)C)[C@@H](C)CC [Example 32, (Ac-Phe^6, A6c^7)hGIP(6-30)-NH2] | 24.1 | 60.3 |  |  |
| CCCN1C(=O)CC(SC[C@H](NC(=O)[C@H](CCCCN)NC(=O)[C@H](CCC(N)=O)NC(=O)[C@H](C)NC(=O)[C@H](CC(C)C)NC(=O)[C@H](CC(C)C)NC(=O)[C@H](Cc2c[nH]c3ccccc23)NC(=O)[C@H](CC(N)=O)NC(=O)[C@@H](NC(=O)[C@H](Cc2ccccc2)NC(=O)[C@H](CC(=O)O)NC(=O)[C@H](CCC(N)=O)NC(=O)[C@H](CCC(N)=O)NC(=O)[C@H](Cc2c[nH]cn2)NC(=O)[C@@H](NC(=O)[C@H](CCCCN)NC(=O)[C@H](CC(=O)O)NC(=O)[C@H](CCSC)NC(=O)[C@H](C)NC(=O)[C@@H](NC(=O)[C@H](CO)NC(=O)[C@H](Cc2ccc(O)cc2)NC(=O)[C@H](CC(=O)O)NC(=O)[C@H](CO)NC(=O)C2(NC(=O)[C@H](Cc3ccccc3)NC(C)=O)CCCCC2)[C@@H](C)CC)[C@@H](C)CC)C(C)C)C(N)=O)C1=O (stereo partly shown) [Example 33, [Ac-Phe^6, A6c^7, Cys(Psu)^31]hGIP(6-31)-NH2] | 13.6 | 10.2 |  |  |
| CCCN1C(=O)CC(SC[C@H](NC(=O)[C@H](CCCCN)NC(=O)[C@H](CCC(N)=O)NC(=O)[C@H](C)NC(=O)[C@H](CC(C)C)NC(=O)[C@H](CC(C)C)NC(=O)[C@H](Cc2c[nH]c3ccccc23)NC(=O)[C@H](CC(N)=O)NC(=O)[C@@H](NC(=O)[C@H](Cc2ccccc2)NC(=O)[C@H](CC(=O)O)NC(=O)[C@H](CCC(N)=O)NC(=O)[C@H](CCC(N)=O)NC(=O)[C@H](Cc2c[nH]cn2)NC(=O)[C@@H](NC(=O)[C@H](CCCCN)NC(=O)[C@H](CC(=O)O)NC(=O)[C@H](CCSC)NC(=O)[C@H](C)NC(=O)[C@@H](NC(=O)[C@H](CO)NC(=O)[C@H](Cc2ccc(O)cc2)NC(=O)[C@H](CC(=O)O)NC(=O)[C@H](CO)NC(=O)C2(NC(=O)[C@@H](N)Cc3ccccc3)CCCCC2)[C@@H](C)CC)[C@@H](C)CC)C(C)C)C(N)=O)C1=O (stereo partly shown) [Example 34, [A6c^7, Cys(Psu)^31]hGIP(6-31)-NH2] | 11.3 | 7.4 |  |  |
| CCCC[C@H](NC(=O)[C@H](C)NC(=O)[C@@H](NC(=O)[C@H](CO)NC(=O)[C@H](Cc1ccc(O)cc1)NC(=O)[C@H](CC(=O)O)NC(=O)[C@H](CO)NC(=O)C1(NC(=O)[C@@H](N)Cc2ccccc2)CCCC1)[C@@H](C)CC)C(=O)N[C@@H](CC(=O)O)C(=O)N[C@@H](CCCCN)C(=O)N[C@H](C(=O)N[C@@H](Cc1c[nH]cn1)C(=O)N[C@@H](CCC(N)=O)C(=O)N[C@@H](CCC(N)=O)C(=O)N[C@@H](CC(=O)O)C(=O)N[C@@H](Cc1ccccc1)C(=O)N[C@H](C(=O)N[C@@H](CC(N)=O)C(=O)N[C@@H](Cc1c[nH]c2ccccc12)C(=O)N[C@@H](CC(C)C)C(=O)N[C@@H](CC(C)C)C(=O)N[C@@H](C)C(=O)N[C@@H](CCC(N)=O)C(=O)N[C@@H](CCCCN)C(N)=O)C(C)C)[C@@H](C)CC [Example 35, (A5c^7, Nle^14)hGIP(6-30)-NH2] (HELM PEPTIDE1{F.[O=C(C1(N[*:1])CCCC1)[*:2]].S.D.Y.S.I.A.[Nle].D.K.I.H.Q.Q.D.F.V.N.W.L.L.A.Q.K.[am]}$$$$V2.0) | 16.5 | 23 |  |  |
| CCCC[C@H](NC(=O)[C@H](C)NC(=O)[C@@H](NC(=O)[C@H](CO)NC(=O)[C@H](Cc1ccc(O)cc1)NC(=O)[C@H](CC(=O)O)NC(=O)[C@H](CO)NC(=O)C1(NC(=O)[C@@H](N)Cc2ccccc2)CCCCC1)[C@@H](C)CC)C(=O)N[C@@H](CC(=O)O)C(=O)N[C@@H](CCCCN)C(=O)N[C@H](C(=O)N[C@@H](Cc1c[nH]cn1)C(=O)N[C@@H](CCC(N)=O)C(=O)N[C@@H](CCC(N)=O)C(=O)N[C@@H](CC(=O)O)C(=O)N[C@@H](Cc1ccccc1)C(=O)N[C@H](C(=O)N[C@@H](CC(N)=O)C(=O)N[C@@H](Cc1c[nH]c2ccccc12)C(=O)N[C@@H](CC(C)C)C(=O)N[C@@H](CC(C)C)C(=O)N[C@@H](C)C(=O)N[C@@H](CCC(N)=O)C(=O)N[C@@H](CCCCN)C(N)=O)C(C)C)[C@@H](C)CC [Example 36, (A6c^7, Nle^14)hGIP(6-30)-NH2] (HELM PEPTIDE1{F.[O=C(C1(N[*:1])CCCCC1)[*:2]].S.D.Y.S.I.A.[Nle].D.K.I.H.Q.Q.D.F.V.N.W.L.L.A.Q.K.[am]}$$$$V2.0) | 21.9 | 21.6 |  |  |
| CCCC[C@H](NC(=O)[C@H](C)NC(=O)[C@@H](NC(=O)C(C)(C)NC(=O)[C@H](Cc1ccc(O)cc1)NC(=O)[C@H](CC(=O)O)NC(=O)[C@H](CO)NC(=O)[C@@H](NC(=O)[C@@H](N)Cc1ccccc1)[C@@H](C)CC)[C@@H](C)CC)C(=O)N[C@@H](CC(=O)O)C(=O)N[C@@H](CCCCN)C(=O)N[C@H](C(=O)N[C@@H](Cc1c[nH]cn1)C(=O)N[C@@H](CCC(N)=O)C(=O)N[C@@H](CCC(N)=O)C(=O)N[C@@H](CC(=O)O)C(=O)N[C@@H](Cc1ccccc1)C(=O)N[C@H](C(=O)N[C@@H](CC(N)=O)C(=O)N[C@@H](Cc1c[nH]c2ccccc12)C(=O)N[C@@H](CC(C)C)C(=O)N[C@@H](CC(C)C)C(=O)N[C@@H](C)C(=O)N[C@@H](CCC(N)=O)C(=O)N[C@@H](CCCCN)C(N)=O)C(C)C)[C@@H](C)CC [Example 37, (Aib^11, Nle^14)hGIP(6-30)-NH2] (HELM PEPTIDE1{F.I.S.D.Y.[Aib].I.A.[Nle].D.K.I.H.Q.Q.D.F.V.N.W.L.L.A.Q.K.[am]}$$$$V2.0) | 13.5 | 28.5 |  |  |
| CCCCCCCCCC(=O)NCCC[C@H](NC(=O)[C@H](CCCCN)NC(=O)[C@H](CCC(N)=O)NC(=O)[C@H](C)NC(=O)[C@H](CC(C)C)NC(=O)[C@H](CC(C)C)NC(=O)[C@H](Cc1c[nH]c2ccccc12)NC(=O)[C@H](CC(N)=O)NC(=O)[C@@H](NC(=O)[C@H](Cc1ccccc1)NC(=O)[C@H](CC(=O)O)NC(=O)[C@H](CCC(N)=O)NC(=O)[C@H](CCC(N)=O)NC(=O)[C@H](Cc1c[nH]cn1)NC(=O)[C@@H](NC(=O)[C@H](CCCCN)NC(=O)[C@H](CC(=O)O)NC(=O)[C@H](CCSC)NC(=O)[C@H](C)NC(=O)[C@@H](NC(=O)[C@H](CO)NC(=O)[C@H](Cc1ccc(O)cc1)NC(=O)[C@H](CC(=O)O)NC(=O)[C@@H](N)CO)[C@@H](C)CC)[C@@H](C)CC)C(C)C)C(=O)N[C@@H](CCCCN)C(=O)N[C@@H](CCCCN)C(=O)N[C@@H](CC(N)=O)C(=O)N[C@@H](CC(=O)O)C(=O)N[C@@H](Cc1c[nH]c2ccccc12)C(=O)N[C@@H](CCCCN)C(=O)N[C@@H](Cc1c[nH]cn1)C(=O)N[C@@H](CC(N)=O)C(=O)N[C@H](C(=O)N[C@H](C(=O)N[C@@H](CCC(N)=O)C(=O)O)[C@@H](C)O)[C@@H](C)CC [Example 39, [Orn^31(N-C(O)-(CH2)8-CH3)]hGIP(8-42)-OH] (H-SDYSIAMDKIHQQDFVNWLLAQK[Orn](Decanoyl)KKNDWKHNITQ-OH) |  |  | 31.1 | 13.7 |
| CCCN1C(=O)CC(SC[C@H](NC(=O)[C@H](CCCCN)NC(=O)[C@H](CCC(N)=O)NC(=O)[C@H](C)NC(=O)[C@H](CC(C)C)NC(=O)[C@H](CC(C)C)NC(=O)[C@H](Cc2c[nH]c3ccccc23)NC(=O)[C@H](CC(N)=O)NC(=O)[C@@H](NC(=O)[C@H](Cc2ccccc2)NC(=O)[C@H](CC(=O)O)NC(=O)[C@H](CCC(N)=O)NC(=O)[C@H](CCC(N)=O)NC(=O)[C@H](Cc2c[nH]cn2)NC(=O)[C@@H](NC(=O)[C@H](CCCCN)NC(=O)[C@H](CC(=O)O)NC(=O)[C@H](CCSC)NC(=O)[C@H](C)NC(=O)[C@@H](NC(=O)[C@H](CO)NC(=O)[C@H](Cc2ccc(O)cc2)NC(=O)[C@H](CC(=O)O)NC(=O)[C@H](CO)NC(=O)C2CCCCC2)[C@@H](C)CC)[C@@H](C)CC)C(C)C)C(=O)N[C@@H](CCCCN)C(=O)N[C@@H](CCCCN)C(=O)N[C@@H](CC(N)=O)C(=O)N[C@@H](CC(=O)O)C(=O)N[C@@H](Cc2c[nH]c3ccccc23)C(=O)N[C@@H](CCCCN)C(=O)N[C@@H](Cc2c[nH]cn2)C(=O)N[C@@H](CC(N)=O)C(=O)N[C@H](C(=O)N[C@H](C(=O)N[C@@H](CCC(N)=O)C(=O)O)[C@@H](C)O)[C@@H](C)CC)C1=O (stereo partly shown) [Example 40, [Chc-Ser^8, Cys(Psu)^31]hGIP(8-42)-OH] (Cyclohexanecarbonyl-SDYSIAMDKIHQQDFVNWLLAQKC(X1)KKNDWKHNITQ-OH) | 4.1 | 6.9 |  |  |

— patent US8450266B2 (Ipsen Pharma S.A.S., priority 2008, dated 2013)
